pIC50: −log10 of the molar value.
What was measured:
[1] = tested on: methicillin-resistant Staphylococcus aureus (MRSA); experiment: Antibacterial activity, agar well diffusion method; format: cell-based; conditions: 50 μg of each compound per well, 8-mm wells, read-out: Diameter of inhibition zone
Protocol: Methicillin-resistant Staphylococcus aureus (MRSA), extended spectrum beta-lactamase-producing Escherichia coli (ESBL-producing E. coli) and the agar well diffusion method were used to evaluate the antibacterial activity of the isolated compounds [29]. The strains were cultured in nutrient broth at 37 °C for 18 h and diluted with steriled 0.9% NaCl to obtain the 1.5 × 10^8 CFU/mL bacterial solution. Then, 100 μL of the bacterial solution was spread on Mueller–Hinton agar (MHA) plate on which 8-mm wells were created aseptically with tips. The isolated compounds were dissolved in dimethyl sulfoxide at the concentration of 1 mg/mL and 50 μL of each compound solution was applied in each well. The plates were incubated at 37 °C for 16–18 h and the diameters of the inhibtion zones were measured. Dimethyl sulfoxide and apramycin were used as controls in this experiment.

alpha-glucosidase [2] = target: T1, alpha-glucosidase (Saccharomyces cerevisiae, UniProt P53341); experiment: Inhibitory type assay on alpha-glucosidase (Lineweaver–Burk plots); format: biochemical; conditions: Vmax decreased while Km remained constant
T1 sequence (P53341 whole entry): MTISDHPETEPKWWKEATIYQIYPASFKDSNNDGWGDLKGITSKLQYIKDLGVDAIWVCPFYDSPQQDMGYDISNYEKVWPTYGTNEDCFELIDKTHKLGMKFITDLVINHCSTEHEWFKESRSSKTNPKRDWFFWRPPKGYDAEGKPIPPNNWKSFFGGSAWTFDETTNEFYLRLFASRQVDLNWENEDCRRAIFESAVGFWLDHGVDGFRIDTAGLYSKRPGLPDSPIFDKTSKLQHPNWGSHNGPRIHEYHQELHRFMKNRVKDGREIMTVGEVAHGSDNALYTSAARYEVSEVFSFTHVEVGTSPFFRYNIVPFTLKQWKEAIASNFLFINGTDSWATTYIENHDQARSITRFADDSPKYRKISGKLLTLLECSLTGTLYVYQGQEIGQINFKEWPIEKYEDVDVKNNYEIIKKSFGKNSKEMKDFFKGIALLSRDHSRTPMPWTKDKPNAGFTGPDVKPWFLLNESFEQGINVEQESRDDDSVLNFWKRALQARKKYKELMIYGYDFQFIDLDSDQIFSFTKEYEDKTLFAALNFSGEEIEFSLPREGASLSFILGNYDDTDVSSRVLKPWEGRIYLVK
Protocol: In order to examine the inhibition mechanism of compound 11, their activity was measured at the different concentration of pNPG.
Enzyme inhibition due to various concentrations of the 8 and 11 compounds were evaluated by monitoring the effects of different concentrations of the substrate. For Lineweaver–Burk double reciprocal plots 1/enzyme velocity (1/V) vs. 1/substrate concentration (1/[S]), the inhibition type was determined using various concentrations of pNPG (1 mM, 2 mM, and 4 mM) as a substrate in the presence of different concentrations of the test compounds (0; 4.96; 9.92 and 19.84 µM for 8 and 0; […]; 43.03 and 86.06 µM for 11). The experiments were carried out in 3 replicates. The mixtures were incubated at 37 °C and the optical density was measured at 405 nm every 1 min for 30 min with the Clariostar Labtech microplate reader (Ortenberg, Germany). Optimal concentrations of the tested compound were chosen based on the IC50 value. The inhibition constants were obtained graphically from secondary plots (Microsoft Excel 2010, Washington, WA, USA).

alpha-glucosidase [3] = target: T1, alpha-glucosidase; experiment: Alpha-glucosidase inhibition assay (pNPG substrate); format: biochemical; conditions: means ± standard errors of three independent experiments; read-out: Alpha-glucosidase inhibitory IC50
Protocol: The alpha-glucosidase (0.2 U/mL) and substrate (5.0 mM p-nitrophenyl-α-D-glucopyranoside) were dissolveed in 100 mM of pH 6.9 sodium phosphate buffer. The inhibitor (50 µL) was preincubated with alpha-glucosidase at 37 °C for 20 min, and then the substrate (40 µL) was added to the reaction mixture. The enzymatic reaction was carried out at 37 °C for 20 min and stopped by adding 0.2 M of Na2CO3 (130 μL). Enzymatic activity was quantified by measuring absorbance at 405 nm. All samples were analyzed in triplicate at five different concentrations around the IC50 values, and the mean values were retained. The inhibition percentage (%) was calculated by the following equation: Inhibition (%)=[1−(Asample/Acontrol)]×100. .

| Compound | zone of inhibition at 50 µg/disc [1] [mm] | Inhibition type (alpha-glucosidase [2]) | pIC50 (alpha-glucosidase [3]) |
| --- | --- | --- | --- |
| COc1cc(O)c2c(=O)c(O)c(-c3ccc(OC)c(O)c3)oc2c1 [Compound 5, ombuin] | 15 |  |  |
| COc1c(O)cc(-c2oc3c(Br)c(OC)c(Br)c(O)c3c(=O)c2OC)cc1Br [Compound 8, 6,8,5′-Tribromoayanin] |  | noncompetitive |  |
| COc1c(Br)c(O)c2c(=O)c(OC)c(-c3cc(Br)c(O)c(Br)c3)oc2c1Br [Compound 11, 6,8,3′,5′-Tetrabromokamatakenin] |  | noncompetitive |  |
| CN[C@@H]1[C@@H](O[C@H]2O[C@H](CO)[C@@H](N)[C@H](O)[C@H]2O)OC2C[C@@H](N)[C@@H](O[C@H]3[C@H](O)[C@@H](O)[C@H](N)C[C@@H]3N)OC2[C@@H]1O (stereo partly drawn) [apramycin, reference compound] | 24 |  |  |
| isoorientin [Compound 15] |  |  | < 3.52 |
| vitexin [Compound 16] |  |  | < 3.52 |
